Drawing on ChEMBL document CHEMBL4342457, “Clerodane Diterpenoids Isolated from the Leaves of Casearia graveolens” (J Nat Prod, 2020), this text covers IC50 and Activity for ten compounds.

One test relates to HepG2. Description: Cytotoxicity against human HepG2 cells after 48 hrs by MTT assay. Format: functional, cell-based. To be noted: HepG2, 48 h.
Test [1] deals with A549. Description: Cytotoxicity against human A549 cells after 48 hrs by MTT assay. Format: functional, cell-based. To be noted: A549, 48 h. On the technique in general: Tetrazolium dyes change colour on reduction, which living cells bring about.
Test [2] has as its system A549. Description: Induction of cell cycle arrest in human A549 cells assessed as accumulation at G1 phase at 1 uM incubated for 48 hrs by propidium iodide staining based flow cytometry (reference value: 29.60%). Format: functional.
Test [3] relates to A549. In words: Induction of apoptosis human A549 cells assessed as necrotic cells at 4 uM after 48 hrs by Annexin V-FITC/PI double staining based flow cytometric analysis (reference value: 0.3%). Format: functional.
In test [4] the test system is A549. In words: Induction of apoptosis human A549 cells assessed as late apoptotic cells at 4 uM after 48 hrs by Annexin V-FITC/PI double staining based flow cytometric analysis (reference value: 7.4%). Format: functional.
Test [5] relates to A549. In words: Induction of cell cycle arrest in human A549 cells assessed as accumulation at G2 phase at 1.5 uM incubated for 48 hrs by propidium iodide staining based flow cytometry (reference value: 30.41%). Format: functional. Background: A flow cytometer gives signals particle by particle.
Test [6] deals with A549. Description: Induction of cell cycle arrest in human A549 cells assessed as accumulation at G1 phase at 1.5 uM incubated for 48 hrs by propidium iodide staining based flow cytometry (reference value: 29.60%). Format: functional.
In test [7] the test system is A549. In words: Induction of apoptosis human A549 cells assessed as live cells at 1 uM after 48 hrs by Annexin V-FITC/PI double staining based flow cytometric analysis (reference value: 88%). Format: functional.
Test [8] deals with A549. In words: Induction of cell cycle arrest in human A549 cells assessed as accumulation at G1 phase at 2 uM incubated for 48 hrs by propidium iodide staining based flow cytometry (reference value: 29.60%). Format: functional.
Test [9] concerns A549. In words: Induction of cell cycle arrest in human A549 cells assessed as accumulation at S phase at 1.5 uM incubated for 48 hrs by propidium iodide staining based flow cytometry (reference value: 39.99%). Format: functional.
The subject of test [10] is A549. In words: Induction of apoptosis human A549 cells assessed as early apoptotic cells at 1 uM after 48 hrs by Annexin V-FITC/PI double staining based flow cytometric analysis (reference value: 4.3%). Format: functional.
Test [11] has as its system A549. Description: Induction of apoptosis human A549 cells assessed as live cells at 4 uM after 48 hrs by Annexin V-FITC/PI double staining based flow cytometric analysis (reference value: 88%). Format: functional.
The subject of test [12] is A549. In words: Induction of cell cycle arrest in human A549 cells assessed as accumulation at S phase at 1 uM incubated for 48 hrs by propidium iodide staining based flow cytometry (reference value: 39.99%). Format: functional.
Test [13] deals with A549. In words: Induction of apoptosis human A549 cells assessed as early apoptotic cells at 2 uM after 48 hrs by Annexin V-FITC/PI double staining based flow cytometric analysis (reference value: 4.3%). Format: functional.
Test [14] has as its system A549. In words: Induction of cell cycle arrest in human A549 cells assessed as accumulation at G2 phase at 1 uM incubated for 48 hrs by propidium iodide staining based flow cytometry (reference value: 30.41%). Format: functional.
Test [15] deals with A549. In words: Induction of apoptosis human A549 cells after 48 hrs by Annexin V-FITC/PI double staining based flow cytometric analysis. Format: functional, cell-based.
Test [16] concerns A549. Description: Induction of cell cycle arrest in human A549 cells assessed as accumulation at S phase at 2 uM incubated for 48 hrs by propidium iodide staining based flow cytometry (reference value: 39.99%). Format: functional.
Test [17] concerns A549. Description: Induction of apoptosis human A549 cells assessed as live cells at 2 uM after 48 hrs by Annexin V-FITC/PI double staining based flow cytometric analysis (reference value: 88%). Format: functional.
Test [18] deals with A549. In words: Induction of apoptosis human A549 cells assessed as early apoptotic cells at 4 uM after 48 hrs by Annexin V-FITC/PI double staining based flow cytometric analysis (reference value: 4.3%). Format: functional.
Test [19] has as its system A549. In words: Induction of apoptosis human A549 cells assessed as late apoptotic cells at 2 uM after 48 hrs by Annexin V-FITC/PI double staining based flow cytometric analysis (reference value: 7.4%). Format: functional.
Test [20] deals with A549. Description: Induction of cell cycle arrest in human A549 cells assessed as accumulation at G2 phase at 2 uM incubated for 48 hrs by propidium iodide staining based flow cytometry (reference value: 30.41%). Format: functional.
For test [21], the system named is A549. In words: Induction of apoptosis human A549 cells assessed as necrotic cells at 2 uM after 48 hrs by Annexin V-FITC/PI double staining based flow cytometric analysis (reference value: 0.3%). Format: functional.
Test [22] has as its system A549. Description: Induction of apoptosis human A549 cells assessed as necrotic cells at 1 uM after 48 hrs by Annexin V-FITC/PI double staining based flow cytometric analysis (reference value: 0.3%). Format: functional.
For test [23], the system named is A549. Description: Induction of apoptosis human A549 cells assessed as late apoptotic cells at 1 uM after 48 hrs by Annexin V-FITC/PI double staining based flow cytometric analysis (reference value: 7.4%). Format: functional.

pIC50: −log10 of the molar value.

In the case of `C=C/C(C)=C/C[C@]1(C)[C@H](C)C[C@H](O)[C@@]23C(=C[C@@H](OC(C)=O)C[C@@H]12)[C@@H](OC)O[C@H]3OC(C)=O`, the negative logarithm of the IC50 (pIC50) in the test on HepG2 and with A549 [1] was less than 5.00 throughout.
In the case of `C=C/C(C)=C/C[C@]1(C)[C@H](C)C[C@H](O)[C@@]23C(=C[C@H](OC(=O)C(C)C)C[C@@H]12)[C@@H](OC)O[C@H]3OC(C)=O`, the pIC50 in the test on HepG2 and with A549 [1] was less than 5.00 throughout.
Consider `C=C/C(C)=C/C[C@]1(C)[C@H](C)C[C@H](O)[C@@]23C(=C[C@H](OC(=O)C(C)CC)C[C@@H]12)[C@@H](OC)O[C@H]3OC(C)=O` (some centres not stated), for which the pIC50 in the test on HepG2 and in the test on A549 [1] was less than 5.00 in each case.
Turning to `C=C/C(C)=C/C[C@]1(C)[C@H](C)C[C@H](O)[C@@]23C(=C[C@H](OC(=O)CC(C)C)C[C@@H]12)[C@@H](OC(C)=O)O[C@H]3OC(C)=O`, the Activity was determined as 70.25% in the test on A549 [2]; 5.1% with A549 [3]; 74.5% with A549 [4]; 4.3% in the test on A549 [5]; 70.31% in the test on A549 [6]; 74.5% in the test on A549 [7]. For the same compound, the Activity in the test on A549 [8] was found to be 79.44%; in the test with A549 [9], 25.39%; in the test on A549 [10], 6.2%; with A549 [11] it was 5.4%; with A549 [12] it was 20.75%; in the test with A549 [13] it was 26.7%. Moreover, the Activity in the test with A549 [14] is 9.01%; with A549 [15], “Dose-dependent effect”; in the test on A549 [16], 15.37%; with A549 [17], 52.7%; in the test with A549 [18], 15%; with A549 [19], 19.9%. Moreover, the Activity was 5.19% in the test with A549 [20], 0.8% in the test on A549 [21], 1.1% in the test with A549 [22] and 18.2% with A549 [23]. Besides, the negative-log IC50 (pIC50) (as a rule, the IC50 on a negative log10 scale, so that one unit is a factor of ten) in the test on HepG2 was 5.34; with A549 [1] it was 5.72.
`C=C/C(C)=C/C[C@]1(C)[C@H](C)C[C@H](O)[C@@]23C(=C[C@H](OC(=O)CC(C)C)C[C@@H]12)[C@@H](OC)O[C@H]3OC(C)=O`: the pIC50 in the test on HepG2 and in the test on A549 [1] was less than 5.00 in each case.
`C=C/C(C)=C/C[C@]1(C)[C@H](C)C[C@H](O)[C@@]23C(=C[C@H](OC(=O)CC(C)C)C[C@@H]12)[C@@H](OC)O[C@H]3OC`: the pIC50 in the test with HepG2 and in the test with A549 [1] was less than 5.00 throughout.
`C=C/C(C)=C/C[C@]1(C)[C@H](C)C[C@H](O)[C@@]23C(=C[C@@H](OC(=O)C(C)CC)C[C@@H]12)[C@@H](OC)O[C@H]3OC(C)=O` (some centres not stated): the negative-log IC50 (pIC50) with HepG2 and in the test with A549 [1] was less than 5.00 each time.
As to `C=C/C(C)=C/C[C@]1(C)[C@H](C)C[C@H](O)[C@@]23C(=C[C@H](OC(=O)C(C)C)C[C@@H]12)[C@@H](OC)O[C@@H]3OC(C)=O`, the pIC50 in the test on HepG2 and with A549 [1] was less than 5.00 throughout.
In the case of `C=C/C(C)=C/C[C@]1(C)[C@H](C)C[C@H](O)[C@@]23C(=C[C@H](OC(=O)C(C)C)C[C@@H]12)[C@@H](OC)O[C@H]3OC`, the pIC50 in the test on HepG2 and with A549 [1] was less than 5.00 in each case.
Regarding `COC(=O)C[C@](O)(CCCC(C)(C)O)C(=O)O[C@@H]1C(OC)=C[C@]23CCCN2CCc2cc4c(cc2[C@H]13)OCO4` [OMACETAXINE MEPESUCCINATE], the pIC50 with HepG2 was 7.46; with A549 [1], 7.50.
